This passage reports IC50 results from patent US11524966B1 (Valo Early Discovery, Inc., priority 2017, dated 2022).

Bounds are passed on as bounds.

In the assay the target is T1, USP28 (His-tagged USP28-FL-mammalian) (Homo sapiens, UniProt Q96RU2).
T1 construct: Expression of USP28 (1-1077)-TEV-6*His (pTT5 vector); made in house; host or cells: Expi293f cells (pTT5 vector)
T1 sequence (Q96RU2 1-1077): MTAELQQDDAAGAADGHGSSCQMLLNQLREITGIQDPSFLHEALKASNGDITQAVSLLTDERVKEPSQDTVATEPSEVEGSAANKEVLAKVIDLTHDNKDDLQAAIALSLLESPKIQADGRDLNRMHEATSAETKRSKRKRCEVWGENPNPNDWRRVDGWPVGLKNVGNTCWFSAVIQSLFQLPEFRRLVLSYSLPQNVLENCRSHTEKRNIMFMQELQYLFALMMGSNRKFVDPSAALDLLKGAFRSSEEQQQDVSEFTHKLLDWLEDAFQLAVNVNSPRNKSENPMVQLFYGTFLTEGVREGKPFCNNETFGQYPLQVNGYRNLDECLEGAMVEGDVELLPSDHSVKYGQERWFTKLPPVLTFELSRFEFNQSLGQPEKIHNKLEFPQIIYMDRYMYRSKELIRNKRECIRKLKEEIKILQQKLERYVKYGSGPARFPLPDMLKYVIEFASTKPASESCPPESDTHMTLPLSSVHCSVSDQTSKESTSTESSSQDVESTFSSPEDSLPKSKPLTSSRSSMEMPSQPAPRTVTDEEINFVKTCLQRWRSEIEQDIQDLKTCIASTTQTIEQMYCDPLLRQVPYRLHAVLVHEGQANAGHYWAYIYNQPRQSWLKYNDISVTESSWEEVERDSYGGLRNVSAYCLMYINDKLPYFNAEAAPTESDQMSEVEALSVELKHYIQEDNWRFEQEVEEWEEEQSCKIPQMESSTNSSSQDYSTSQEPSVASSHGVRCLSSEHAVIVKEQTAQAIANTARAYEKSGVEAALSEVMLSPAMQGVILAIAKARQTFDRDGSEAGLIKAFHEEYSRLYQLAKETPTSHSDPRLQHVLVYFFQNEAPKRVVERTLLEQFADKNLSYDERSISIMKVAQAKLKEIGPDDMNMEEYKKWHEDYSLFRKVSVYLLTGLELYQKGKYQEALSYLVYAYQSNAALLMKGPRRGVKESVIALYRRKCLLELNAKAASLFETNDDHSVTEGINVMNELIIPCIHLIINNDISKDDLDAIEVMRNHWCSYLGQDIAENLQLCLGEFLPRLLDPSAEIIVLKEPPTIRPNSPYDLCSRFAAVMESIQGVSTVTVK
Nature of the assay: Ubiquitin-Rhodamine 110 Assay for USP28 Activity, Example A-1(a). The format is biochemical. Conditions: Ubiquitin-Rhodamine 110 assay, Example A-1(a); read-out: USP28 A-1(a) IC50 range. An outline of the steps: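 Full-length His-tagged USP28 (1-1077, Expi293F-expressed; […]) was preincubated 30 min with compound (25 μM–1.3 nM, 10-point 3-fold) in 20 mM Tris-HCl pH 8.0, 3 mM BME, 0.03% BGG, 0.01% Triton X-100. Ub-Rh110 (25 nM) was then added for 45 min at room temperature, stopped with citric acid, and read by fluorescence (485/535 nm).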
For `CO[C@H]1CN(c2ccc3c(c2)OC[C@H](NC(=O)c2sc4nc(C)cnc4c2N)C3)C[C@H]1N` [Example 148, 7-amino-N-[(3R)-7-[(3R,4S)-3-amino-4-methoxypyrrolidin-1-yl]-3,4-dihydro-2H-1-benzopyran-3-yl]-3-methylthieno[2,3-b]pyrazine-6-carboxamide], the IC50 lay in the range of 1 to 50 nM.

For `CO[C@H]1CN(c2cc(F)c3c(c2C#N)OC[C@H](NC(=O)c2sc4nc(C)ccc4c2N)C3)C[C@@H]1N` [Example 175, 3-amino-N-[(3R)-7-[(3S,4S)-3-amino-4-methoxypyrrolidin-1-yl]-8-cyano-5-fluoro-3,4-dihydro-2H-1-benzopyran-3-yl]-6-methylthieno[2,3-b]pyridine-2-carboxamide], the IC50 lay within 50 to 200 nM.

Turning to `Cc1ccc2c(N)c(C(=O)N[C@H]3COc4cc(N5CC6CCC(C5)N6)c(F)cc4C3)sc2n1` [Example 104, 3-amino-N-[(3R)-7-{3,8-diazabicyclo[3.2.1]octan-3-yl]-6-fluoro-3,4-dihydro-2H-1-benzopyran-3-yl]-6-methylthieno[2,3-b]pyridine-2-carboxamide], the IC50 lay within 1 to 50 nM.

Consider `COc1nc2sc(C(=O)N[C@H]3CCc4cc(N5C[C@H](OC)[C@@H](N)C5)ccc4C3)c(N)c2cc1F` [Example 135, 3-amino-N-[(2S)-6-[(3S,4S)-3-amino-4-methoxypyrrolidin-1-yl]-1,2,3,4-tetrahydronaphthalen-2-yl]-5-fluoro-6-methoxythieno[2,3-b]pyridine-2-carboxamide], for which the IC50 lay in the range of 200 to 2000 nM.

Turning to `Cc1ccc2c(N)c(C(=O)N[C@H]3COc4cc(N5CC6CNCC(C5)O6)c(F)cc4C3)sc2n1` [Example 106, 3-amino-N-[(3R)-6-fluoro-7-{9-oxa-3,7-diazabicyclo[3.3.1]nonan-3-yl}-3,4-dihydro-2H-1-benzopyran-3-yl]-6-methylthieno[2,3-b]pyridine-2-carboxamide], the IC50 fell in the range of 1 to 50 nM.

With `Cc1ccc2c(N)c(C(=O)N[C@H]3COc4cc([C@H]5C[C@H](N)C5)ccc4C3)sc2n1` [Example 124, 3-amino-6-methyl-N-[(3R)-7-[(1r,3r)-3-aminocyclobutyl]-3,4-dihydro-2H-1-benzopyran-3-yl]thieno[2,3-b]pyridine-2-carboxamide], the IC50 was in the range of 1 to 50 nM.

As for `CO[C@H]1CCN(c2ccc3c(c2)OC[C@H](NC(=O)c2sc4nc(C)ccc4c2N)C3)C[C@@H]1N` [Example 119, 3-amino-N-[(3R)-7-[(3S,4S)-3-amino-4-methoxypiperidin-1-yl}-3,4-dihydro-2H-1-benzopyran-3-yl]-6-methylthieno[2,3-b]pyridine-2-carboxamide], the IC50 lay in the range of 50 to 200 nM.

`CCn1ccc2cc(C(=O)N[C@H]3CCc4cc(N5C[C@H](OC)[C@@H](N)C5)cc(F)c4C3)nnc21` [Example 138, N-[(2S)-6-[(3S,4S)-3-amino-4-methoxypyrrolidin-1-yl]-8-fluoro-1,2,3,4-tetrahydronaphthalen-2-yl]-7-ethyl-7H-pyrrolo[2,3-c]pyridazine-3-carboxamide]: the IC50 is more than 2000 nM.

Take `Cc1ccc2c(N)c(C(=O)N[C@H]3COc4cc(N5C[C@@H](N)[C@@H](C(F)F)C5)ccc4C3)sc2n1` [Example 168, 3-amino-N-[(3R)-7-[(3S,4S)-3-amino-4-(difluoromethyl)pyrrolidin-1-yl]-3,4-dihydro-2H-1-benzopyran-3-yl]-6-methylthieno[2,3-b]pyridine-2-carboxamide]: the IC50 was in the range of 1 to 50 nM.

In the case of `Cc1ccc2c(N)c(C(=O)N[C@H]3COc4c(C#N)c(N5CC6CCC(C5)N6)cc(F)c4C3)sc2n1` [Example 95, 3-amino-N-[(3R)-8-cyano-7-{3,8-diazabicyclo[3.2.1]octan-3-yl}-5-fluoro-3,4-dihydro-2H-1-benzopyran-3-yl]-6-methylthieno[2,3-b]pyridine-2-carboxamide], the IC50 was 1 to 50 nM.

For the molecule `CO[C@H]1CN(c2ccc3c(c2)CC[C@H](NC(=O)c2sc4nc(C)sc4c2N)C3)C[C@@H]1N` [Example 133, 6-amino-N-[(2S)-6-[(3S,4S)-3-amino-4-methoxypyrrolidin-1-yl]-1,2,3,4-tetrahydronaphthalen-2-yl]-2-methylthieno[2,3-d][1,3]thiazole-5-carboxamide], the IC50 was 50 to 200 nM.

Consider `Cc1ccc2c(N)c(C(=O)N[C@H]3COc4cc(N5CC[C@@H]6CNC[C@@H]65)ccc4C3)sc2n1` [Example 165, N-[(3R)-7-[(3aR,6aR)-octahydropyrrolo[2,3-c]pyrrol-1-yl]-3,4-dihydro-2H-1-benzopyran-3-yl]-3-amino-6-methylthieno[2,3-b]pyridine-2-carboxamide], for which the IC50 fell in the range of 1 to 50 nM.

`Cc1ccc2c(N)c(C(=O)N[C@H]3COc4cc(N5CC6CCC(C5)N6)c(C#N)c(F)c4C3)sc2n1` [Example 126, 3-amino-N-[(3R)-6-cyano-7-{3,8-diazabicyclo[3.2.1]octan-3-yl}-5-fluoro-3,4-dihydro-2H-1-benzopyran-3-yl]-6-methylthieno[2,3-b]pyridine-2-carboxamide]: the IC50 was in the range of 1 to 50 nM.

On to `Cc1ccc2c(N)c(C(=O)N[C@H]3COc4c(F)c(N5CC6CCC(C5)N6)cc(F)c4C3)oc2n1` [Example 172, 3-amino-N-[(3R)-7-{3,8-diazabicyclo[3.2.1]octan-3-yl}-5,8-difluoro-3,4-dihydro-2H-1-benzopyran-3-yl]-6-methylfuro[2,3-b]pyridine-2-carboxamide], for which the IC50 is 200 to 2000 nM.

For the molecule `Cc1ccc2c(N)c(C(=O)N[C@H]3COc4cc(N5C[C@H](OC6CCC6)[C@@H](N)C5)ccc4C3)sc2n1` [Example 141, 3-amino-N-[(3R)-7-[(3S,4S)-3-amino-4-cyclobutoxypyrrolidin-1-yl]-3,4-dihydro-2H-1-benzopyran-3-yl]-6-methylthieno[2,3-b]pyridine-2-carboxamide], the IC50 lay in the range of 1 to 50 nM.

On to `Cc1ccc2c(N)c(C(=O)N[C@H]3CCc4cc(N5CC6CNCC(C5)O6)c(F)cc4C3)sc2n1` [Example 101, 3-amino-N-[(2S)-7-fluoro-6-{9-oxa-3,7-diazabicyclo[3.3.1]nonan-3-yl}-1,2,3,4-tetrahydronaphthalen-2-yl]-6-methylthieno[2,3-b]pyridine-2-carboxamide], for which the IC50 was in the range of 1 to 50 nM.

`CCO[C@H]1CN(c2ccc3c(n2)CC[C@H](NC(=O)c2sc4nc(C)ccc4c2N)C3)C[C@@H]1N` [Example 142, 3-amino-N-[(6S)-2-[(3S,4S)-3-amino-4-ethoxypyrrolidin-1-yl]-5,6,7,8-tetrahydroquinolin-6-yl]-6-methylthieno[2,3-b]pyridine-2-carboxamide]: the IC50 lay within 200 to 2000 nM.

`Cc1ccc2c(N)c(C(=O)N[C@H]3COc4c(C#N)c(N5CC6CNCC(C5)O6)cc(F)c4C3)sc2n1` [Example 96, 3-amino-N-[(3R)-8-cyano-5-fluoro-7-{9-oxa-3,7-diazabicyclo[3.3.1]nonan-3-yl}-3,4-dihydro-2H-1-benzopyran-3-yl]-6-methylthieno[2,3-b]pyridine-2-carboxamide]: the IC50 is 1 to 50 nM.

As for `Cc1ccc2c(N)c(C(=O)N[C@H]3CCc4cc(N5CC6CCC(C5)N6)ccc4C3)oc2n1` [Example 171, 3-amino-N-[(2S)-6-{3,8-diazabicyclo[3.2.1]octan-3-yl]-1,2,3,4-tetrahydronaphthalen-2-yl]-6-methylfuro[2,3-b]pyridine-2-carboxamide], the IC50 was more than 2000 nM.

Take `CO[C@H]1CN(c2ccc3c(c2)OC[C@H](NC(=O)c2sc4nc(C)ccc4c2N)C3)C[C@H]1N` [Example 122, 3-amino-N-[(3R)-7-[(3R,4S)-3-amino-4-methoxypyrrolidin-1-yl]-3,4-dihydro-2H-1-benzopyran-3-yl]-6-methylthieno[2,3-b]pyridine-2-carboxamide]: the IC50 lay in the range of 1 to 50 nM.

On to `Cc1ccc2c(N)c(C(=O)N[C@H]3COc4cc(C5CC6COCC(C5)N6)ccc4C3)sc2n1` (stereo partly drawn) [Example 125, 3-amino-6-methyl-N-[(3R)-7-{3-oxa-9-azabicyclo[3.3.1]nonan-7-yl}-3,4-dihydro-2H-1-benzopyran-3-yl]thieno[2,3-b]pyridine-2-carboxamide], for which the IC50 fell in the range of 1 to 50 nM.

As usually defined, the IC50 is the point on the concentration scale where inhibition reaches its midpoint.
